Data from PubChem BioAssay (NCI).
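Results reflect a 48-hour exposure of cells in 96-well plates to compound at five concentrations. TGI is the concentration that stops growth completely.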

Columns and labels:
Test in all cases: growth of human tumour cells (NCI), 48 h
[1] = system: K-562 leukemia
[2] = system: NCI-H522 lung
[3] = system: HCC-2998 colon
[4] = system: M14 melanoma
[5] = system: SNB-19 CNS
[6] = system: CCRF-CEM leukemia
[7] = system: UO-31 renal
[8] = system: HCT-116 colon
[9] = system: KM12 colon
[10] = system: SF-539 CNS
[11] = system: SNB-75 CNS
[12] = system: ACHN renal
[13] = system: RPMI-8226 leukemia
[14] = system: SN12C renal

Compound | TGI [1] [µM] | TGI [2] [µM] | TGI [3] [µM] | TGI [4] [µM] | TGI [5] [µM] | TGI [6] [µM] | TGI [7] [µM] | TGI [8] [µM] | TGI [9] [µM] | TGI [10] [µM] | TGI [11] [µM] | TGI [12] [µM] | TGI [13] [µM] | TGI [14] [µM]
C[C@@H]1C[C@](O)([C@@H](C)Cl)C(=O)O[C@@H]2CCN3CC=C(COC(=O)[C@]1(C)O)[C@H]23 | > 100 | > 100 | > 100 | > 100 | > 10 | > 10 | > 10 | > 100 | > 100 | > 100 | > 100 | > 10 | > 100 | 
COc1ccc(C(OCC2OC(n3cc(C)c(=O)[nH]c3=O)CC2n2cc(Cn3cc(Br)c(=O)[nH]c3=O)nn2)(c2ccccc2)c2ccccc2)cc1 (stereo not given) |  | > 100 | > 100 | > 100 | > 100 | > 100 | > 100 | > 100 | > 100 | > 100 | > 100 | > 100 | > 100 | > 100
O=c1c2c(-c3ccccc3)onc2n(-c2ccccc2)c(=O)n1-c1ccccc1 | > 100 | 33.2 | 33.1 | 49.7 | > 100 | > 100 | 30.4 | > 100 | 37 | > 100 | 84.2 | > 100 | > 100 | > 100
CCCNC(=S)/N=C/c1c(O)c2ccccc2[nH]c1=O | > 100 | > 100 | > 100 | > 100 | > 100 | > 100 | > 100 | > 100 | > 100 | > 100 | > 100 | > 100 | > 100 | > 100
N#C/C(N)=C(\C#N)NC=NCc1ccccc1 | > 100 | > 100 | > 100 | > 100 | > 100 | > 100 | > 100 | > 100 | > 100 | > 100 | > 100 | > 100 | > 100 | > 100
CC(C)(C)C(=O)OC(N)/C=C/c1ccccc1 (stereo not given) |  | > 100 | > 100 | > 100 |  | > 100 | > 100 | > 100 | > 100 | > 100 | > 100 | > 100 | > 100 | > 100
CCCCn1c(C)c2c(c1C)C(=O)N(CC(O)CN1CCc3ccccc3C1)C2=O (stereo not given) | > 100 | > 100 | > 100 | > 100 | > 100 | > 100 | > 100 | > 100 | > 100 | > 100 | > 100 | > 100 | > 100 | > 100
CCCCCC(/C=C/C1CCC(=O)C1CC#C[Si](C)(C)C)OCc1ccccc1 (stereo not given) | 41.8 | 28.6 | 48.1 | 77.8 | > 84.8 | 17.2 | 34.3 | 34.9 | 33 | 46.2 | 41.3 | 31.6 | 44.3 | 39
C[C@@H]1CCC2[C@@H](C)[C@@H](OCCO[C@H]3OC4O[C@@]5(C)CCC6[C@H](C)CCC([C@H]3C)[C@@]46OO5)OC3O[C@@]4(C)CCC1[C@]32OO4 (stereo not given in full) |  | > 100 | > 100 | > 100 | > 100 | > 100 | > 100 | > 100 | > 100 | > 100 | > 100 | > 100 | > 100 | > 100
C[C@@]12CCC3C1C=C1C(=O)c4cc(O)ccc4C(=O)[C@]1(O2)[C@@]3(C)C=O | 12.5 | 11.4 | 9.74 | 19.9 | 18.4 | 4.02 | 13.7 | 12.8 | 18.1 | 12.3 |  | 17.1 | 9.01 | 8.85
COc1ccc(-c2c(C#N)c(O)n(NS(=O)(=O)c3ccc(C)cc3)c(=O)c2C#N)cc1 |  | > 100 | > 100 | > 100 | > 100 | > 100 |  | > 100 | > 100 | > 100 | > 100 | > 100 | 54.3 | > 100
O=C(O)CCN(CCC(=O)O)c1ccc(/C=C2\SC(=S)NC2=O)cc1 | > 100 | > 100 | > 100 | > 100 | > 100 | > 100 | > 100 | > 100 | > 100 | > 100 | > 100 | > 100 | > 100 | > 100
CC1(C)OC(=C(C#N)C#N)C(C#N)=C1/C=C/c1ccncc1 | 7.04 | 4.12 | 19.5 | 6.56 | 6.16 | 2.4 | 8.34 | 3.46 | 9.14 | 3.49 | 8.68 | 3.39 | 4.21 | 5.75
CC(/C=N\NC(=S)N1CCCCC1)=N/NC(=S)N1CCCCC1 | > 100 | 5.68 | 11.7 | 5.51 | 35.7 |  | 7.19 | 6.19 | 13.7 | > 100 | 8.08 | 7.16 | > 100 | 10.8
O=C1C[C@H]2[C@@H](O1)[C@@H](O)CN1C(=O)c3ccccc3[C@H]21 | > 100 | > 100 | > 100 | > 100 | > 100 | > 100 | > 100 | > 100 | > 100 | > 100 | > 100 | > 100 | > 100 | > 100
CCOC(=O)C1=C(N)Oc2ccc(Br)cc2C1C(C#N)C(=O)OCC (stereo not given) | > 100 | 34.6 | 32.7 | > 100 | 68.1 | 44.5 | 35.8 | 42.2 | 62.7 | 40.3 | > 100 | 33.6 | 41.6 | > 100
